Test results published in ChEMBL document CHEMBL1800003, “In vivo and in vitro SAR of tetracyclic MAPKAP-K2 (MK2) inhibitors. Part I” (Bioorg Med Chem Lett, 2010).

Experiments:
[1] = target: T1, MAP kinase-activated protein kinase 2 (Homo sapiens, UniProt P49137); assay: Inhibition of MK2 in human THP-1 cells assessed as inhibition of anisomycin stimulated ser78-hsp27 phosphorylation after 10 mins by FACS analysis; type: cell-based
PBMC = assay: Antiinflammatory activity against LPS-induced TNFalpha release in human PBMC preincubated for 30 mins measured after 3 hrs of LPS stimulation; type: functional, cell-based
[2] = target: Mitogen-activated protein kinase 9 (Homo sapiens, UniProt P45984); assay: Inhibition of JNK2
Chain of Mitogen-activated protein kinase 9 (P45984 whole entry): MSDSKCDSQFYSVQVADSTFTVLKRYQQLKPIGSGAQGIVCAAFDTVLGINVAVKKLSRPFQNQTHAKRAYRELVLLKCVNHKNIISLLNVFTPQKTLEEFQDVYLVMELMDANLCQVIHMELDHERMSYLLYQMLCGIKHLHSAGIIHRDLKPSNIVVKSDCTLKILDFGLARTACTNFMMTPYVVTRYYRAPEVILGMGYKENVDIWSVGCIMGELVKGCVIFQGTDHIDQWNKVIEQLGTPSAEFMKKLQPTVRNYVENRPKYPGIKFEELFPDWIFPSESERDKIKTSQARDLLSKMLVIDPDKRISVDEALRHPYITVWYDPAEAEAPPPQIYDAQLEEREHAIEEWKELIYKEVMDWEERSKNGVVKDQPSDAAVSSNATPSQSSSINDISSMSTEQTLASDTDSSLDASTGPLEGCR

[3] = target: T1, MAP kinase-activated protein kinase 2; assay: Inhibition of human MK2 using hsp27 peptide biotinyl-AYSRALSRQLSSGVSEIRCOOH as substrate after 45 mins by FRET assay
[4] = Drug level in LPS-stimulated OFI mouse plasma at 100 mg/kg, po after 2 hrs by LC-MS/MS analysis; type: ADME, organism-based; design: dose 100 mg/kg, route oral
Mus musculus = assay: Antiinflammatory activity in OFI mouse assessed as inhibition of LPS-induced TNFalpha release at 100 mg/kg, po dosed 1 hr before LPS challenge and measured after 1 hr post LPS challenge by ELISA; type: functional

T1 sequence (P49137 whole entry): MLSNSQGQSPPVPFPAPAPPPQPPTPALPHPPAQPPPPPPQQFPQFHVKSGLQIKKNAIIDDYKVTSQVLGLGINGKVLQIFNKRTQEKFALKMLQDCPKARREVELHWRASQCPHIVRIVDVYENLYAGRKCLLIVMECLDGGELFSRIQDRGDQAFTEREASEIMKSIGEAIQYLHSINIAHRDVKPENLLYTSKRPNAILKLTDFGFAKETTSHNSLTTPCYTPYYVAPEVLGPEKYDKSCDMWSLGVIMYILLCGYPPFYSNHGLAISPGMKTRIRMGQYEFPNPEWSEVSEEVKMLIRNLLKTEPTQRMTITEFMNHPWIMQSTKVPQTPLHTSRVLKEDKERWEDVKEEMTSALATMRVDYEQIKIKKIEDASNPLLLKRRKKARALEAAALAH

Compound	IC50 [1]	IC50 [2]	IC50 [3]	concentration at 2 h [4]	IC50 (PBMC)	inhibition in vivo at 100 mg/kg (Mus musculus)
O=C1NCCCc2[nH]c3c(ccc4cnc(-c5ccccc5OCCN5CCOCC5)cc43)c21	–	–	167 nM	–	> 3000 nM	–
O=C1NCCCc2[nH]c3c(ccc4cnc(-c5cncc(OCCN6CCOCC6)c5)cc43)c21	> 30000 nM	3170 nM	80 nM	–	8600 nM	–
COCCOc1cncc(-c2cc3c(ccc4c5c([nH]c43)CCCNC5=O)cn2)c1	8300 nM	2700 nM	96 nM	–	8380 nM	–
NCc1[nH]c2c(ccc3cnc(/C=C/c4ccccc4)cc32)c1C(=O)O	–	–	14 nM	–	735 nM	–
CNCc1[nH]c2c(ccc3cnc(/C=C/c4ccccc4)cc32)c1C(=O)O	–	–	60 nM	–	1240 nM	–
O=C1NOCc2[nH]c3c(ccc4cnc(/C=C/c5ccccc5)cc43)c21	–	–	25 nM	–	46 nM	–
O=C1NCc2[nH]c3c(ccc4cnc(/C=C/c5ccccc5)cc43)c21	–	2 nM	10 nM	–	14 nM	–
O=C1NCc2[nH]c3c(ccc4cnc(/C=C/c5ccc(CN6CCOCC6)cc5)cc43)c21	–	22 nM	8 nM	–	5 nM	–
O=C1NCc2[nH]c3c(ccc4cnc(/C=C/c5cccc(CCN6CCOCC6)c5)cc43)c21	–	34 nM	10 nM	–	14 nM	–
O=C1NCc2[nH]c3c(ccc4cnc(Nc5cccc(F)c5)cc43)c21	–	1 nM	73 nM	–	15 nM	–
O=C1NCc2[nH]c3c(ccc4cnc(-c5cncc(OCCN6CCOCC6)c5)cc43)c21	9330 nM	75 nM	5 nM	–	556 nM	–
CN1Cc2[nH]c3c(ccc4cnc(/C=C/c5ccccc5)cc43)c2C1=O	–	–	1190 nM	–	–	–
O=C1NCCc2[nH]c3c(ccc4cnc(/C=C/c5ccc(CN6CCOCC6)cc5)cc43)c21	–	198 nM	1 nM	–	9 nM	–
O=C1NCCc2[nH]c3c(ccc4cnc(/C=C/c5cccc(CCN6CCOCC6)c5)cc43)c21	–	76 nM	5 nM	–	32 nM	–
O=C1NCCc2[nH]c3c(ccc4cnc(-c5cccc(OCCN6CCOCC6)c5)cc43)c21	1300 nM	269 nM	16 nM	–	294 nM	–
O=C1NCCc2[nH]c3c(ccc4cnc(-c5cncc(OCCN6CCOCC6)c5)cc43)c21	2500 nM	418 nM	10 nM	–	283 nM	–
O=C1NCCCc2[nH]c3c(ccc4cnc(/C=C/c5ccccc5)cc43)c21	–	85 nM	116 nM	–	202 nM	–
O=C1NCCCc2[nH]c3c(ccc4cnc(/C=C/c5ccc(CN6CCOCC6)cc5)cc43)c21	–	980 nM	253 nM	–	140 nM	–
O=C1NCCCc2[nH]c3c(ccc4cnc(/C=C/c5cccc(CCN6CCOCC6)c5)cc43)c21	–	700 nM	172 nM	–	> 1000 nM	–

The next lines start with results.

IC50 [1]	IC50 [2]	IC50 [3]	concentration at 2 h [4]	Compound	IC50 (PBMC)	inhibition in vivo at 100 mg/kg (Mus musculus)
700 nM	649 nM	12 nM	–	COCCOc1cncc(-c2cc3c(ccc4c5c([nH]c43)CCNC5=O)cn2)c1	260 nM	–
–	–	72 nM	–	COc1ccc(-c2cc3c(ccc4c5c([nH]c43)CCCNC5=O)cn2)cc1	580 nM	–
875 nM	547 nM	23 nM	–	COc1ccc(-c2cc3c(ccc4c5c([nH]c43)CN(C)NC5=O)cn2)cc1	2360 nM	–
–	–	27 nM	–	COc1ccc(-c2cc3c(ccc4c5c([nH]c43)CNC5=O)cn2)cc1	198 nM	–
5080 nM	30 nM	85 nM	–	O=C1NCc2[nH]c3c(ccc4cnc(-c5ccccc5F)cc43)c21	912 nM	–
–	–	900 nM	–	O=C1NCc2[nH]c3c(ccc4cnc(-c5ccccc5C(F)(F)F)cc43)c21	–	–
1280 nM	11 nM	32 nM	–	O=C1NCc2[nH]c3c(ccc4cnc(-c5cccc(OCCN6CCOCC6)c5)cc43)c21	280 nM	–
1680 nM	38 nM	5 nM	–	COCCOc1cncc(-c2cc3c(ccc4c5c([nH]c43)CNC5=O)cn2)c1	416 nM	–
500 nM	1420 nM	15 nM	–	COc1ccc(-c2cc3c(ccc4c5c([nH]c43)CCNC5=O)cn2)cc1F	97 nM	–
5800 nM	2200 nM	160 nM	13 µM	COc1ccc(-c2cc3c(ccc4c5c([nH]c43)CCC5=O)cn2)cc1F	1400 nM	73%
